Measured values published in ChEMBL document CHEMBL5620413, “Novel pterostilbene derivatives ameliorate heart failure by reducing oxidative stress and inflammation through regulating Nrf2/NF-κB signaling pathway” (Eur J Med Chem, 2023).
The source made the active and inactive calls. The calls are words filed in the database; no cut-off is given here.

Tested on: RAW264.7
Experiment: Antiinflammatory activity in mouse RAW264.7 cells assessed as decrease in LPS-induced NO production at 10 uM preincubated for 1 hr followed by LPS treatment for 24 hrs by Griess reagent based assay
Assay type: functional, cell-based
Settings: time 25.0 hrs

| Structure (SMILES) | Activity |
| --- | --- |
| CCCCOc1ccc(/C=C/c2cc(OC)cc(OC)c2/C=C/C(=O)c2cccc(C)c2)cc1 | Active |
| COc1cc(/C=C/c2ccc(OCC3CCCCC3)cc2)c(C2CC(C)=NN2C(C)=O)c(OC)c1 (stereo not drawn) | Active |
| CCC(C)Oc1ccc(/C=C/c2cc(OC)cc(OC)c2C2CC(C)=NN2C(C)=O)cc1 (stereo not drawn) | Active |
| CCCCOc1ccc(/C=C/c2cc(OC)cc(OC)c2/C=C/C(=O)c2cccc(Br)c2)cc1 | Active |
| C=CCOc1ccc(/C=C/c2cc(OC)cc(OC)c2/C=C/C(=O)c2cccc(C)c2)cc1 | Active |
| C=CCOc1ccc(/C=C/c2cc(OC)cc(OC)c2/C=C/C(=O)c2ccccc2)cc1 | Active |
| COc1cc(/C=C/c2ccc(OCc3ccc(F)cc3)cc2)c(/C=C/C(=O)c2cccc(C)c2)c(OC)c1 | Active |
| COCCCCOc1ccc(/C=C/c2cc(OC)cc(OC)c2/C=C/C(=O)c2cccc(C)c2)cc1 | Active |
| COCCOc1ccc(/C=C/c2cc(OC)cc(OC)c2/C=C/C(=O)c2cccc(OC)c2)cc1 | Active |
| COCCOc1ccc(/C=C/c2cc(OC)cc(OC)c2/C=C/C(=O)c2cccc(C)c2)cc1 | Active |
| CCCOc1ccc(/C=C/c2cc(OC)cc(OC)c2/C=C/C(=O)c2cccc(C)c2)cc1 | Active |
| COCCCCOc1ccc(/C=C/c2cc(OC)cc(OC)c2C2CC(C)=NN2C(C)=O)cc1 (stereo not drawn) | Active |
| C=CCOc1ccc(/C=C/c2cc(OC)cc(OC)c2C2CC(C)=NN2C(C)=O)cc1 (stereo not drawn) | Active |
| CCCOc1ccc(/C=C/c2cc(OC)cc(OC)c2C2CC(C)=NN2C(C)=O)cc1 (stereo not drawn) | Active |
| C=CCOc1ccc(/C=C/c2cc(OC)cc(OC)c2/C=C/C(=O)c2cccc(OC)c2)cc1 | Active |
| COCCOc1ccc(/C=C/c2cc(OC)cc(OC)c2/C=C/C(=O)c2ccccc2)cc1 | Active |
| COc1cc(/C=C/c2ccc(OCCOc3ccccc3)cc2)c(C2CC(C)=NN2C(C)=O)c(OC)c1 (stereo not drawn) | Active |
| C=CCOc1ccc(/C=C/c2cc(OC)cc(OC)c2/C=C/C(=O)c2cccc(Br)c2)cc1 | Active |
